Experimental findings from patent US10940139B2, “Compounds that interact with the Ras superfamily for the treatment of cancers, inflammatory diseases, rasopathies, and fibrotic disease” (Shy Therapeutics LLC, priority 2017, dated 2021) are described below.

The target of the first test is KRas G12D/Q61H double mutant (Homo sapiens (Human), UniProt P01116, G12D/Q61H). As to the kind of experiment: Ras GTP binding domain inhibition assay (labeled GTP). Conditions: 20 μM compound; KRas G12D/Q61H double mutant; read-out: % Inhibition at 20 μM of K-Ras mutant and wild-type protein, KRas G12D Q61H. Here is the method: Buffer-I: • 50 mM Tris, pH 7.5 • 150 mM NaCl (optional) • 1 mM MgCl2 • 1 mM DTT. • KRas G12D mutant protein was expressed as a His-tagged protein. Purified His-KRas G12D protein was diluted in buffer-I to a final concentration of 3-10 μg/ml. • 200 μl of the diluted His-KRas G12D protein was added to a nickel coated 96 well plate and incubated overnight at 4° C. • The next day, wells were washed 3× in 200 μl of Buffer-I. • Then 200 μl of Buffer-I were added to each well in the presence of 1% DMSO. • Tested compounds were added to the protein-coated wells at a concentration of 20 μM, and incubated for 3 hours at room temperature. While performing IC50 measurements a serial dilution of all tested concentrations was prepared.
Chain of KRas G12D/Q61H double mutant (P01116-2 other isoform, or with tags, fused parts or gaps G12D/Q61H): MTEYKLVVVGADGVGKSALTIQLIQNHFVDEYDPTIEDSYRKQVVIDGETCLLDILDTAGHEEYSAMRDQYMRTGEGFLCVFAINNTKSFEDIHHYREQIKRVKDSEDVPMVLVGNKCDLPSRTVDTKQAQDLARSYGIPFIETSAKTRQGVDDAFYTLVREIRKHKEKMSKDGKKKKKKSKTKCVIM
Then 22 μl of Cy3-GTP or Cy5-GTP was added to each well. The labeled GTP was incubated for 45 min. at room temperature. • Following GTP incubation, wells were washed 3× in Buffer-I, and 200 μl of Buffer-I were added to each well. • Following washes, the amount of bound labeled-GTP was measured with an Eppendorf AF2200 plate reader.
By substituting KRas G12D mutant protein with KRas G12C mutant, KRas wild type, KRas Q61H mutant, KRas G12D/Q61H double mutant or KRas G12C/Q61H double mutant under the assay conditions described above, KRas G12C mutant KRas wild type, KRas Q61H mutant, KRas G12D/Q61H double mutant and KRas G12C/Q61H double mutant inhibition, respectively, were each determined.
`CC(CC(N)=O)Nc1cc(C(F)(F)F)nc(-c2ccccn2)n1` (stereo not drawn): the inhibition at 20 µM fell in the range of 1 to 25%.

For the compound `CCOc1ccc(C2=NN(C(=O)CC)C(c3ccc(CC)cc3)C2)cc1` (stereo not drawn), the inhibition at 20 µM lay in the range of 25 to 50%.

Turning to `CC1CCCN(S(=O)(=O)c2ccc(NCc3ccc(C(=O)N(C)C(C)C)cc3)c([N+](=O)[O-])c2)C1` (stereo not drawn), the inhibition at 20 µM was 25 to 50%.

In the case of `COCCCCC(=O)N(c1cc(C)ccc1F)C(C)c1ccc(C)cc1` (stereo not drawn), the inhibition at 20 µM was in the range of 1 to 25%.

For the compound `CC(C)n1cnnc1CNCc1ccc(OCc2ccccc2)cc1OCc1ccccc1`, the inhibition at 20 µM fell in the range of 1 to 25%.

`CCc1noc(CN(CCN(Cc2nc(CC)no2)c2ccccc2)c2ccccc2)n1`: the inhibition at 20 µM lay in the range of 51 to 75%.

Still in this test, the particulars now being: 20 μM compound; read-out: % Inhibition at 20 μM KRas G12D Q61H.
With `CC(C)COC(C)c1noc(CN(Cc2ccccc2O)C(C)c2ccccc2)n1` (stereo not drawn), the inhibition at 20 µM fell in the range of 1 to 25%.

Regarding `O=C(NCCc1cnc(O)nc1)c1csc2nc(-c3ccccn3)nc(N3CCOCC3)c12` [drawing 2810], the inhibition at 20 µM fell in the range of 1 to 25%.

Take `O=C(c1csc2c(O)nc(-c3ccccn3)nc12)N1CCN(c2ccccc2F)CC1` [drawing 2721]: the inhibition at 20 µM lay in the range of 25 to 50%.

On to `O=c1[nH]c(-c2ccccn2)nc2ccccc12`, for which the inhibition at 20 µM was in the range of 25 to 50%.

Take `O=C(c1csc2c(O)nc(-c3ccccn3)nc12)N1CCC(N2CCOCC2)CC1` [drawing 2678]: the inhibition at 20 µM lay in the range of 25 to 50%.

For `Cc1cc(C)n(CCCNC(=O)c2cc(S(=O)(=O)N3CCCCC3)ccc2N2CCOCC2)n1`, the inhibition at 20 µM lay in the range of 25 to 50%.

For `Cc1noc(C)c1CN(C(=O)c1ccc(COc2ccc(F)cc2)o1)c1ccccc1`, the inhibition at 20 µM lay within 25 to 50%.

As for `COc1ccc(CCC(=O)Nc2nnc(-c3ccccn3)[nH]2)cc1OC`, the inhibition at 20 µM lay within 25 to 50%.

`O=S(=O)(NC(c1ccccc1)c1ccccn1)c1cc(C(F)(F)F)ccc1Cl` (stereo not drawn): the inhibition at 20 µM is 25 to 50%.

As to `O=C(Nc1nnc(-c2ccccn2)[nH]1)C1CCCN(c2ncccc2C(F)(F)F)C1` (stereo not drawn), the inhibition at 20 µM lay within 51 to 75%.

For the compound `CCN(CC)CCC(C)Nc1nc(-c2ccccn2)nc2sccc12` (stereo not drawn) [drawing 2706], the inhibition at 20 µM is 25 to 50%.

`COc1ccnc(CN2CCOC(C)(c3ccccc3)C2)c1OC` (stereo not drawn): the inhibition at 20 µM lay in the range of 25 to 50%.

As for `COc1ccc(CN(Cc2cccs2)C(=O)c2oc3ccccc3c2C)cc1OC`, the inhibition at 20 µM lay within 25 to 50%.

Regarding `Cc1ccc(-c2c(C)sc3nc(-c4cnccn4)[nH]c(=O)c23)cc1`, the inhibition at 20 µM lay within 25 to 50%.

For the compound `Cc1cc(N2CCN(c3cccc(C(F)(F)F)c3)CC2)n2ncnc2n1`, the inhibition at 20 µM lay within 25 to 50%.

In the case of `CN(Cc1ccc(C(=O)NCC(F)(F)F)cc1)Cc1ccc(F)cc1Cl`, the inhibition at 20 µM was in the range of 25 to 50%.

The same test, now with this note: 20 μM; read-out: KRas G12D Q61H % Inh.
As for `O=C(Nc1nc(-c2ccccn2)cs1)c1ccc(F)cc1` [drawing 2579], the inhibition at 20 µM was in the range of 51 to 75%.

On to `Cc1nc(-c2ccccn2)nc(O)c1CCC(=O)NCCc1cccs1` [drawing 2595], for which the inhibition at 20 µM was 25 to 50%.

Regarding `CCC(C)(C)c1ccc(OCCCC(=O)NC(C(=O)OC)C(C)C)c(C(C)(C)CC)c1` (stereo not drawn) [drawing 2619], the inhibition at 20 µM lay within 25 to 50%.

In the case of `Cc1ccc(CC(=O)Nc2nnc(-c3ccccn3)[nH]2)s1` [drawing 2521], the inhibition at 20 µM was in the range of 51 to 75%.

Regarding `O=C(Nc1nnc(-c2ccccn2)[nH]1)C1CCCN(c2cnccn2)C1` (stereo not drawn) [drawing 2527], the inhibition at 20 µM is 51 to 75%.

As for `O=C(CCn1ccc2ccccc21)Nc1nnc(-c2ccccn2)[nH]1` [drawing 2462], the inhibition at 20 µM fell in the range of 51 to 75%.

As for `O=c1nc(-c2ccccn2)[nH]c2sc(-c3ccccc3)cc12` [drawing 2588], the inhibition at 20 µM was in the range of 51 to 75%.

With `Oc1nc(-c2ccccn2)nc2c1CCCN2` [drawing 2637], the inhibition at 20 µM was in the range of 25 to 50%.

Take `Cc1nc2nc(C(F)(F)F)nn2c(C)c1CC(=O)Nc1nnc(-c2ccccn2)[nH]1` [drawing 2533]: the inhibition at 20 µM was 51 to 75%.

In the case of `CC(OCc1ccccc1)C(=O)Nc1nnc(-c2ccccn2)[nH]1` (stereo not drawn) [drawing 2516], the inhibition at 20 µM was 51 to 75%.

The test is the same for the next values; noted with them: at 20 μM; read-out: KRas G12D Q61H % Inh.
With `Oc1nc(-c2ccccn2)nc2c(-c3cnc4ccccc4c3)csc12` [drawing 3780], the inhibition at 20 µM lay in the range of 25 to 50%.
